PMC9897767, “Assessments of CYP‑inhibition‑based drug–drug interaction between vonoprazan and poziotinib in vitro and in vivo” (Pharmaceutical Biology, 2023)
Like-named read-outs stand apart in the source and are kept apart here.

Legend:
[1] = system: metabolism of vonoprazan in rat liver microsomes; assay: Inhibition of vonoprazan metabolism by poziotinib in rat liver microsomes; assay type: in vitro ADME
Procedure: Rat liver microsomes (RLMs) were prepared according to the previously reported differential centrifugation method (Eriksson [1978]; Wang et al. [2018]), and the concentration of total protein in the RLM was determined to be 28 mg/mL by the BCA protein quantitative method. Then, a 200 μL incubation system was established, which consisted of 5 μg RLM, 100 mM phosphate buffer (pH 7.4), 10 μM vonoprazan (close to its Km), and a series gradient concentration of poziotinib (100, 50, 10, 5, 1, 0.1, 0.01 μM). The mixture was preincubated at 37 °C for 5 min, and NADPH (1 mM) was then added to start the reaction after vortexing. The mixture was placed at 37 °C in a water bath for 30 min with shaking, and 200 μL acetonitrile was added to terminate the reaction and precipitate the protein. Diazepam-acetonitrile solution was then added accurately to serve as the internal standard. After vortexing, the mixture was centrifuged at 12,000 rpm for 10 min and the supernatant was transferred to the sample bottle for further separation. Vonoprazan and its metabolite M-I were detected by UPLC-MS/MS according to the previously reported method (Shen et al. [2020]). The nonlinear regression equation was fitted with GraphPad Prism 9.0 software to calculate the IC50 value of poziotinib.
(§1) To better understand the inhibitory mechanism of poziotinib on vonoprazan, a series of gradient concentrations of vonoprazan were used in the reaction, which included 1/4-, 1/2-, 1-, and 2-times the Km value. Similarly, concentrations of 0, 1/4-, 1/2-, 1-, and 2-times the IC50 of poziotinib were also included in the experiment. The above mentioned UPLC-MS/MS method was used for the quantification of the vonoprazan metabolite M-I. Ki and αKi values were calculated, and the inhibitory mechanism was analyzed using a primary Lineweaver-Burk diagram, Dixon diagram, and secondary Lineweaver-Burk diagram by GraphPad Prism 9.0.

[2] = design: method as in Suzuki et al. ([2021]); conditions: kidney transplant recipients, after switching from rabeprazole to vonoprazan coadministration; ref Suzuki et al. ([2021]); cited from earlier work
[3] = Michaelis-Menten kinetics of vonoprazan in rat liver microsomes; assay type: in vitro ADME; conditions: pH 7.4, vonoprazan as substrate
Procedure: Rat liver microsomes (RLMs) were prepared according to the previously reported differential centrifugation method (Eriksson [1978]; Wang et al. [2018]), and the concentration of total protein in the RLM was determined to be 28 mg/mL by the BCA protein quantitative method. Then, a 200 μL incubation system was established, which consisted of 5 μg RLM, 100 mM phosphate buffer (pH 7.4), 10 μM vonoprazan (close to its Km), and a series gradient concentration of poziotinib (100, 50, 10, 5, 1, 0.1, 0.01 μM). The mixture was preincubated at 37 °C for 5 min, and NADPH (1 mM) was then added to start the reaction after vortexing. […] Vonoprazan and its metabolite M-I were detected by UPLC-MS/MS according to the previously reported method (Shen et al. [2020]). […]
as §1, with “Similarly, concentrations of 0, 1/4-, 1/2-, 1-, and 2-times the IC50 of poziotinib were also included in the experiment.” left out

[4] = Pharmacokinetics of vonoprazan and metabolite M-I in rats with and without poziotinib pretreatment; assay type: in vivo, Sprague-Dawley (SD) rats; conditions: vonoprazan; for CL/F / Cmax / Tmax / half-life / MRT last / MRT inf / Vd/F: male, Sprague-Dawley, rat, serum, po, 10 mg/kg; for CL/F: 10 mg/kg gavage, read-out: CLz/F (converted); for MRT last: read-out: MRT(0-t); for MRT inf: read-out: MRT(0-∞); for Vd/F: read-out: Vz/F
Procedure: Twelve healthy male SD rats were randomly divided into two groups. The poziotinib group was given 5 mg/kg poziotinib by gavage every day for 7 days, and rats in the control group only received equal amounts of 0.5% CMC-Na solution in the pre-treatment time. Then animals in the poziotinib group and the control group were fasted for 12 h. On Day 8, the poziotinib group was given poziotinib (5 mg/kg) by gavage, and vonoprazan (10 mg/kg) was given 30 min later, while the control group was only given vonoprazan (10 mg/kg) by gavage. Tail venous blood (300 µL) was collected at 0.083, 0.25, 0.5, 1, 2, 3, 4, 6, 12, and 24 h after the administration of vonoprazan, and then the blood was centrifuged at 4,000 rpm, and 4 °C for 10 min. The serum was collected and stored at −80 °C. After thawing at room temperature, 100 μL of the serum sample was removed and 200 μL of acetonitrile containing diazepam (500 ng/mL) was then added to precipitate proteins. After vortexing, 150 μL of supernatant was removed and centrifuged at 13,000 rpm for 5 min. Then, 2 μL of sample was used for the detection of vonoprazan and its main metabolite M-I by UPLC-MS/MS.
DAS (version 3.2.8; The People’s Hospital of Lishui) was used to fit and calculate the pharmacokinetic parameters of vonoprazan and its metabolite M-I, which include peak time (Tmax), maximum plasma concentration (Cmax), elimination half-life (T1/2), area under the drug-time curve (AUC) and clearance rate (CLz/F). SPSS (version 25.0, IBM, USA) was used for the data processing. Student’s t-test was used to compare the normal distribution of the data, and the Mann–Whitney U test was used for the nonnormal distribution of the data. *p < 0.05 indicates a significant difference compared to the control group and **p < 0.001 indicates an extremely significant difference compared to the control group.
ACQUITY I-Class UPLC and Waters XEVO TQD MS (Milford, MA, USA) were used for the detection of vonoprazan and M-I with an ACQUITY UPLC BEH C18 chromatographic column (50 × 2.1 mm, 1.7 μm) at 40 °C. […] The injection volume of the sample was 2 μL. The scanning method was multiple reaction monitoring (MRM) with detection in positive ion mode and an ESI + ion source. Other mass spectrometry parameters were as follows: capillary voltage 2.0 kV, ion source temperature 150 °C, dissolvent temperature 500 °C, argon flow rate 0.15 mL/min, cone hole gas flow 50 L/h, solvent gas flow 1000 L/h. The precursor ion and product ion were m/z 346.04→314.97 for vonoprazan, m/z 347.50→205.00 for M-I, and m/z 285.10→193.10 for internal standard (IS), diazepam.

[5] = oral 10 mg/kg, control group (no poziotinib)
[6] = oral 10 mg/kg, poziotinib group (5 mg/kg oral pretreatment)
[7] = oral 10 mg/kg, poziotinib 5 mg/kg pretreatment

C=CC(=O)N1CCC(Oc2cc3c(Nc4ccc(Cl)c(Cl)c4F)ncnc3cc2OC)CC1 [poziotinib]
inhibition mechanism ([1]; Lineweaver-Burk plot): mixed model of noncompetitive and uncompetitive inhibition
Ki ([1]; Lineweaver-Burk, slope of primary plot, read-out: inhibitory constant Ki): 0.574 µM
IC50 at 30 min ([1]; pH 7.4, probe vonoprazan 10 μM (metabolite M-I measured), 10 μM vonoprazan, NADPH 1 mM, 37 °C 30 min): 10.6 µM

C=CC[C@@H]1/C=C(\C)C[C@H](C)C[C@H](OC)[C@H]2O[C@@](O)(C(=O)C(=O)N3CCCC[C@H]3C(=O)O[C@H](/C(C)=C/[C@@H]3CC[C@@H](O)[C@H](OC)C3)[C@H](C)[C@@H](O)CC1=O)[C@H](C)C[C@@H]2OC [tacrolimus]
increase of blood concentration of tacrolimus [2]: 65.8%

CNCc1cc(-c2ccccc2F)n(S(=O)(=O)c2cccnc2)c1 [vonoprazan]
Km at 30 min [3]: 14.3 µM
CL/F ([4]; control group): 2710 mL/min/kg
CL/F ([4]; poziotinib pretreatment 5 mg/kg): 431 mL/min/kg
Cmax [4, 5]: 5.69 ± 3.73 ng/mL
Tmax [4, 5]: 0.63 ± 0.31 h
half-life [4, 5]: 1.25 ± 0.77 h
MRT last [4, 5]: 2.29 ± 0.36 h
MRT inf [4, 5]: 2.29 ± 0.36 h
Vd/F [4, 5]: 298 ± 191 L/kg
Cmax [4, 6]: 15.4 ± 4.98 ng/mL
Tmax [4, 6]: 1.92 ± 2.06 h
half-life [4, 6]: 2.84 ± 1.44 h
MRT last [4, 6]: 5.26 ± 1.77 h
MRT inf [4, 6]: 5.51 ± 2.06 h
Vd/F [4, 6]: 90.5 ± 27.3 L/kg
AUC(0-T) increase, poziotinib group vs control group [4, 7]: 6.02 fold
AUC(0-∞) increase, poziotinib group vs control group [4, 7]: 6.11 fold
CLz/F reduction, poziotinib group vs control group [4, 7]: 84%
Cmax increase, poziotinib group vs control group [4, 7]: 2.7 fold
MRT(0-T) increase, poziotinib group vs control group [4, 7]: 2.30 fold
MRT(0-∞) increase, poziotinib group vs control group [4, 7]: 2.41 fold
T1/2 increase, poziotinib group vs control group [4, 7]: 2.2 fold
Tmax increase, poziotinib group vs control group [4, 7]: 3.0 fold
Vz/F reduction, poziotinib group vs control group [4, 7]: 70%
